Assay results published in patent publication US10413529B2, “Methods of inhibiting cataracts and presbyopia” (UNIVERSITY OF MASSACHUSETTS, priority 2013, dated 2019).
Where two headings read alike, the source gives them in different places.

Assays:
γ-crystallin = test: Circular dichroism of modified γ-crystallin (secondary structure); format: biochemical; details: 0.5 mg/mL, 22° C., versus native protein
Method: Crystallin samples were dialyzed overnight into 10 mM Na2HPO4/NaH2PO4 buffer pH 6.8 and measured at a concentration of 0.5 mg/mL. CD spectra were measured on a Jasco J715 spectropolarimeter at 22° C. using a quartz cell of 1 mm path length.

γD-crystallin = molecular target: T1, γD-crystallin (Homo sapiens, UniProt P07320); test: Dynamic light scattering (DLS) of γD-crystallin, hydrodynamic radius of monomer and aggregate; format: biochemical; details: γD modified with the agent
T1 construct: 6xHis (N); made in house; host or cells: M15pRep E. coli (pQe1 plasmid from King Labs, MIT)
T1 sequence (P07320 1-174): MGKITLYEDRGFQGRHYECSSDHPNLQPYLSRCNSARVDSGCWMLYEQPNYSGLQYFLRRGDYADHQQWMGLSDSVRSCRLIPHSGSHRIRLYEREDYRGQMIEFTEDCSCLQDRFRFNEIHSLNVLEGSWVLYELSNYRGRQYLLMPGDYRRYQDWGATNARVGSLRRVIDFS
Method: The scattering wave vector is defined as q=4πn sin (θ/2)/λ, where θ is the scattering angle, and λ=514.5, the wavelength of the argon laser in vacuum, and n is 1.33, the refractive index of water. The temperature of the sample was held at constant temperature of 4 to 37±0.1° C. by a circulating water bath. The correlation function was analyzed using CONTIN analysis [NT] times for the correlation functions at measured angles. […] The delay times (τ) were converted to Γ and graphed versus q^2. The slope of the fitted line is the diffusion coefficient (D). […] All solutions were filtered with 0.22 μm hydrophobic PVDF membranes (Fisher Scientific) into 10 mm diameter borosilicate glass tubes and sealed. Solutions were allowed to equilibrate for thirty minutes prior to measuring light scattering. […] The pH and salt concentration were adjusted via overnight dialysis at 4° C. and their final concentration adjusted to 1.0 g/L. […] The scattering wave vector is defined as q=4πn sin (θ/2)/λ, where θ is the scattering angle, and λ=514.5, the wavelength of the argon laser in vacuum, and n is 1.33, the refractive index of water. The temperature of the sample was held at constant temperature of 4 to 37±0.1° C. by a circulating water bath. The correlation function was analyzed using CONTIN analysis [NT] times for the correlation functions at measured angles. […] The delay times (τ) were converted to Γ and graphed versus q^2. The slope of the fitted line is the diffusion coefficient (D). […] All solutions were filtered with 0.22 μm hydrophobic PVDF membranes (Fisher Scientific) into 10 mm diameter borosilicate glass tubes and sealed. Solutions were allowed to equilibrate for thirty minutes prior to measuring light scattering.

human cadaver lenses = system: human cadaver lenses; set-up: key to LOCS III grade, Cortical / LOCS III grade, NO / LOCS III grade, PS / LOCS III grade, NC: LOCS III cataract grade on a decimal scale (higher = more severe)
Method: Within about 24 hours of death, the eyeball is harvested, sliced and the vitreous is removed. The lens is excised and placed in an incubation medium called Optisol®. Optisol® is a corneal storage medium containing chondroitin sulfate, dextran 40, optisol base powder, sodium bicarbonate, gentamycin, amino acids, sodium pyruvate, L-glutamine, 2-mercaptoethanol and purified water. OD is the right eye and OS is the left eye.
Lens opacities are classified according to the LOCS III system. LOCS III measurements are taken with a slit lamp microscope. The LOCS III contains an expanded set of standards selected from the Longitudinal Study of Cataract slide library at the Center for Clinical Cataract Research, Boston, Mass. It includes six slit lamp images for grading nuclear color (NC) and nuclear opalescence (NO), five retroillumination images for grading cortical cataract (C), and five retroillumination images for grading posterior subcapsular (P) cataract. Cataract severity is graded on a decimal scale, with the standards have regularly spaced intervals on the scale.
In all cases, the control is Optisol® medium. The remaining data points are for isolated human cadaver lenses treated with CAPEG4 solutions with Optisol®.

[1] = 10 mg/mL CAPEG4 (OD), 0 HR, Table 7
[2] = 10 mg/mL CAPEG4, 24 HR, Table 7
[3] = 10 mg/mL CAPEG4, 72 HR, Table 7
[4] = 50 mg/mL CAPEG4 (OD), 0 HR, Table 8
[5] = 50 mg/mL CAPEG4, 24 HR, Table 8
[6] = 50 mg/mL CAPEG4, 72 HR, Table 8
[7] = 100 mg/mL CAPEG4 (OD), 0 HR, Table 9
[8] = 100 mg/mL CAPEG4 (OD), 0 HR, Table 10 (repeat, different eyes)
[9] = 100 mg/mL CAPEG4, 24 HR, Table 9
[10] = 100 mg/mL CAPEG4, 24 HR, Table 10 (repeat, different eyes)
[11] = 100 mg/mL CAPEG4, 72 HR, Table 9
[12] = 100 mg/mL CAPEG4, 72 HR, Table 10 (repeat, different eyes)
[13] = 200 mg/mL CAPEG4 (OD), 0 HR, Table 11
[14] = 200 mg/mL CAPEG4 (OD), 0 HR, Table 12 (second pair of lenses)
[15] = 200 mg/mL CAPEG4, 24 HR, Table 11
[16] = 200 mg/mL CAPEG4, 24 HR, Table 12 (second pair of lenses)
[17] = 200 mg/mL CAPEG4, 72 HR, Table 11
[18] = 200 mg/mL CAPEG4, 72 HR, Table 12 (second pair of lenses)

## NCCOCCOCCOCCOCCC(=O)O [CAPEG4]
γ-crystallin
  secondary structure of modified γ-crystallin (CD spectra): showed a similar trend to modifications made with PEG4 and PEG24
γD-crystallin; fast mode (monomer), 37° C.
  Rh: 2.8 nm
γD-crystallin; fast mode (monomer, first Rh column), 22° C.
  Rh: 2.9 nm
γD-crystallin; fast mode (monomer, first Rh column), 22° C., listed as CAPEG
  Rh: 2.8 nm
Human cadaver lenses
  observation on lens capsule and lens volume: wrinkling of the lens capsule was observed and subjectively exhibited some loss of lens volume
Human cadaver lenses; 10 mg/mL CAPEG4
  change of LOCS III grades versus control: no significant change in the experimental versus control samples
Human cadaver lenses; [1]
  LOCS III grade, Cortical: 1.0
  LOCS III grade, NC: 5.0
  LOCS III grade, NO: 5.0
  LOCS III grade, PS: 0.9
Human cadaver lenses; [2]
  LOCS III grade, Cortical: 1.0
  LOCS III grade, NC: 5.0
  LOCS III grade, NO: 5.0
  LOCS III grade, PS: 0.9
Human cadaver lenses; [3]
  LOCS III grade, Cortical: 0.9
  LOCS III grade, NC: 5.0
  LOCS III grade, NO: 5.0
  LOCS III grade, PS: 0.9
Human cadaver lenses; [4]
  LOCS III grade, Cortical: 1.0
  LOCS III grade, NC: 1.7
  LOCS III grade, NO: 2.0
  LOCS III grade, PS: 1.1
Human cadaver lenses; [5]
  LOCS III grade, Cortical: 1.0
  LOCS III grade, NC: 1.7
  LOCS III grade, NO: 2.0
  LOCS III grade, PS: 0.9
Human cadaver lenses; [6]
  LOCS III grade, Cortical: 1.0
  LOCS III grade, NC: 1.9
  LOCS III grade, NO: 2.0
  LOCS III grade, PS: 0.9
Human cadaver lenses; 50 mg/mL CAPEG4, up to 72 hours
  difference of cortical cataracts and NO versus controls: no significant differences between the controls and 50 mg/mL incubation
Human cadaver lenses; [7]
  LOCS III grade, Cortical: 3.0
  LOCS III grade, NC: 1.3
  LOCS III grade, NO: 1.8
  LOCS III grade, PS: 0.9
Human cadaver lenses; [8]
  LOCS III grade, Cortical: 3.0
  LOCS III grade, NC: 3.0
  LOCS III grade, NO: 3.0
  LOCS III grade, PS: 1.8
Human cadaver lenses; [9]
  LOCS III grade, Cortical: 2.9
  LOCS III grade, NC: 1.1
  LOCS III grade, NO: 1.2
  LOCS III grade, PS: 0.9
Human cadaver lenses; [10]
  LOCS III grade, Cortical: 2.6
  LOCS III grade, NC: 3.0
  LOCS III grade, NO: 3.0
  LOCS III grade, PS: 1.5
Human cadaver lenses; [11]
  LOCS III grade, Cortical: 2.7
  LOCS III grade, NC: 1.1
  LOCS III grade, NO: 1.2
  LOCS III grade, PS: 0.9
Human cadaver lenses; [12]
  LOCS III grade, Cortical: 2.0
  LOCS III grade, NC: 3.2
  LOCS III grade, NO: 3.0
  LOCS III grade, PS: 1.0
Human cadaver lenses; [13]
  LOCS III grade, Cortical: 2.5
  LOCS III grade, NC: 2.4
  LOCS III grade, NO: 2.4
  LOCS III grade, PS: 0
Human cadaver lenses; [14]
  LOCS III grade, Cortical: 1.3
  LOCS III grade, NC: 2.8
  LOCS III grade, NO: 3.2
  LOCS III grade, PS: 0.9
Human cadaver lenses; [15]
  LOCS III grade, Cortical: 2.2
  LOCS III grade, NC: 2.4
  LOCS III grade, NO: 2.4
  LOCS III grade, PS: 0
Human cadaver lenses; [16]
  LOCS III grade, Cortical: 1.0
  LOCS III grade, NC: 2.8
  LOCS III grade, NO: 3.2
  LOCS III grade, PS: 0.9
Human cadaver lenses; [17]
  LOCS III grade, Cortical: 2.0
  LOCS III grade, NC: 2.4
  LOCS III grade, NO: 2.4
  LOCS III grade, PS: 0
Human cadaver lenses; [18]
  LOCS III grade, Cortical: 0.9
  LOCS III grade, NC: 2.8
  LOCS III grade, NO: 3.2
  LOCS III grade, PS: 0.9
Human cadaver lenses; compared with Optisol lowered to the same pH with citric acid
  cause of reduction in cataracts (agent versus pH of medium): due to the CAPEG4 and not a pH effect of the medium
